# Results reported in ChEMBL document CHEMBL6096703 (J Med Chem, 2025).
# Activity calls are given as the source filed them. The calls are words filed in the database; no cut-off is given here.
# Columns and labels:
# [1] = Sub-acute toxicity in Kunming mouse assessed as change ASTL level at 100 to 300 mg/kg administered via gavage for 14 days; format: organism-based; settings: in vivo, po, 336 h, dose 100-300 mg/kg, time 14 day
# [2] = Cmax in rat at 2.5 mg/kg, po measured upto 96 hrs by LC-MS/MS analysis; format: ADME, organism-based; settings: in vivo
# [3] = Toxicity in female NOD/SCID mouse xenografted with human MDA-MB-436 cells assessed as histological changes in liver at 3 mg/kg, po administered once every other day for 28 days by H and E staining based analysis; format: organism-based; settings: in vivo, 672 h, time 28 day
# MDA-MB-436 [4] = experiment: Induction of apoptosis in human MDA-MB-436 cells assessed as late apoptotic cells at 10 nM incubated for 3 days by Annexin V/ PI staining based flow cytometry (reference value: 6.57%); format: functional; settings: time 3 day
# [5] = molecular target: Poly [ADP-ribose] polymerase 1 (Homo sapiens, UniProt P09874); experiment: Inhibition of PARP1 (unknown origin) at 1 nM preincubated with compound for 10 mins followed by DNA and NAD+ addition and measured after 60 mins by chemiluminescence based envision reader analysis relative to control; settings: time 70.0 min
# Chain of Poly [ADP-ribose] polymerase 1 (P09874 whole entry): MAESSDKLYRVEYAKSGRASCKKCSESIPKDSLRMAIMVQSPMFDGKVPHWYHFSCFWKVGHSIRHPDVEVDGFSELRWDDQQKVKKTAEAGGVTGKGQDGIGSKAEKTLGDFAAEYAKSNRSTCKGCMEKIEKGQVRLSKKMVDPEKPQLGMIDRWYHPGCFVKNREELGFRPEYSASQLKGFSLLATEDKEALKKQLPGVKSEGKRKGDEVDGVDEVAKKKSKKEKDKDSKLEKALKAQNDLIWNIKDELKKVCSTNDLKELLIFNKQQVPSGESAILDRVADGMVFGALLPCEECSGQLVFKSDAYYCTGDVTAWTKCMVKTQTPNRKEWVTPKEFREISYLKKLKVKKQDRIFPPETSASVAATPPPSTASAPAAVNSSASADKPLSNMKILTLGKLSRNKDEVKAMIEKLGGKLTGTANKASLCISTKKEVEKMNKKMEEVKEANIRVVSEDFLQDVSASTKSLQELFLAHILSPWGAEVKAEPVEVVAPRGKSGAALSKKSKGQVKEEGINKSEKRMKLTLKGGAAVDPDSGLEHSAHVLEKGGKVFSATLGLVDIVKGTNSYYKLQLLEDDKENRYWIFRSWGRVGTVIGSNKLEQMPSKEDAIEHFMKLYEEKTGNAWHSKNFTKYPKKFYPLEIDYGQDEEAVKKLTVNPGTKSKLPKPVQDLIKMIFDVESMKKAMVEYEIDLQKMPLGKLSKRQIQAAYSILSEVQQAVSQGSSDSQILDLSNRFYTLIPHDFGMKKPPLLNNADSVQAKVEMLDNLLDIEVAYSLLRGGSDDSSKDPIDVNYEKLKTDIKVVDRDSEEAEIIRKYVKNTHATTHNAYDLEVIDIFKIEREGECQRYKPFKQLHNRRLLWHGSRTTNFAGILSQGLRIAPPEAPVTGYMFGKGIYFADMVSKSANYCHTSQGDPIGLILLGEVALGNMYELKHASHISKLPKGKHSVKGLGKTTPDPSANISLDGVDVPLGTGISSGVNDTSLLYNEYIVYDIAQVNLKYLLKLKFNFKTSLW
# MDA-MB-436 [6] = experiment: Induction of cell cycle arrest in human MDA-MB-436 cells assessed as accumulation of cells at G0/G1 phase at 1 nM incubated for 3 days by PI staining based flow cytometric analysis (Rvb =56.18%); format: functional; settings: time 3 day
# MDA-MB-436 [7] = experiment: Antitumor activity against luciferase tagged human MDA-MB-436 cells xenografted in female NOD-SCID mouse assessed as median survival time at 3 mg/kg, po administered once a day for 34 days; format: functional; settings: time 34 day
# [8] = Half life in rat at 2.5 mg/kg, po measured upto 96 hrs by LC-MS/MS analysis; format: ADME, organism-based; settings: in vivo
# [9] = molecular target: T1, Poly [ADP-ribose] polymerase 2 (Homo sapiens, UniProt Q9UGN5); experiment: Inhibition of PARP2 (unknown origin) at 1 uM preincubated with compound for 10 mins followed by DNA and NAD+ addition and measured after 60 mins by chemiluminescence based envision reader analysis relative to control; settings: time 70.0 min
# T1 sequence (Q9UGN5 whole entry): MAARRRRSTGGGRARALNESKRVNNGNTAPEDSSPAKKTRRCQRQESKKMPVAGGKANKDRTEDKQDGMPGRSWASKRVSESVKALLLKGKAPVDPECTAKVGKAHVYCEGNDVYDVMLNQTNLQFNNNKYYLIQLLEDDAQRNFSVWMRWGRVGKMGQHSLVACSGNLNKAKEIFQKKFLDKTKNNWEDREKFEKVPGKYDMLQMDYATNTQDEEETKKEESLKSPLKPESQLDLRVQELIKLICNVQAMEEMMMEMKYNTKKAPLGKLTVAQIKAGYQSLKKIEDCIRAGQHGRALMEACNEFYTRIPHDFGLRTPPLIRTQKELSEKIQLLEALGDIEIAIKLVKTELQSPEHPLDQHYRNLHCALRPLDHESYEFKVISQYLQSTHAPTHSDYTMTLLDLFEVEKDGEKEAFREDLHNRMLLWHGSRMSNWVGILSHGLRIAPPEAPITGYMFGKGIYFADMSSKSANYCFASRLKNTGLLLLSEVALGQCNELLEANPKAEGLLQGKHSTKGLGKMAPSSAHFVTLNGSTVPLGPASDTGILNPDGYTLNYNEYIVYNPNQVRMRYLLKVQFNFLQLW
# [10] = Tmax in rat at 2.5 mg/kg, iv measured upto 96 hrs by LC-MS/MS analysis; format: ADME, organism-based; settings: in vivo
# MDA-MB-436 [11] = experiment: Antitumor activity against luciferase tagged human MDA-MB-436 cells xenografted in female NOD-SCID mouse assessed as tumor regression by measuring bioluminescence signal administered orally once a day for 34 days by bioluminescence imaging analysis; format: functional, cell-based; settings: dose 3-10 mg/kg, route po, time 34.0 day
# DLD-1 = experiment: Inhibition of colony formation in wild type human DLD-1 cells assessed as reduction in survival rate at 2.5 to 20 uM incubated for 10 days by crystal violet staining based assay; format: functional, cell-based; settings: dose 2.5-20 µM, time 10.0 day
# [12] = Oral bioavailability in male Balb/c mouse at 1 mg/kg measured upto 96 hrs by LC-MS/MS analysis; format: ADME, organism-based; settings: in vivo
# [13] = Acute toxicity in Kunming mouse assessed as change in cellular morphology of spleen at 100 mg/kg administered once every other day via gavage for 14 days by H and E staining based analysis; format: organism-based; settings: in vivo, po, 336 h, time 14 day
# [14] = molecular target: T1, Poly [ADP-ribose] polymerase 2; experiment: Binding affinity to PARP2 (unknown origin) assessed as DNA trapping activity incubated for 1 hr by Envision 2105 plate reader analysis
# MDA-MB-436 [15] = experiment: Antitumor activity against luciferase tagged human MDA-MB-436 cells xenografted in female NOD-SCID mouse assessed as median survival time at 10 mg/kg, po administered once a day for 34 days; format: functional; settings: time 34 day
# [16] = Clearance in male Balb/c mouse at 1 mg/kg, iv measured upto 96 hrs by LC-MS/MS analysis; format: ADME, organism-based; settings: in vivo, iv, 1 mg/kg, 96 h
# MDA-MB-436 [17] = experiment: Induction of cell cycle arrest in human MDA-MB-436 cells assessed as accumulation of cells at G2/M phase at 100 nM incubated for 3 days by PI staining based flow cytometric analysis (Rvb =24.88%); format: functional; settings: time 3 day
# MDA-MB-436 [18] = experiment: Antiproliferative activity against human MDA-MB-436 cells assessed as inhibition of cell proliferation at 100 nM incubated for 7 days by CCK-8 assay relative to control; format: functional; settings: MDA-MB-436, 168 h, time 7 day
# [19] = Oral bioavailability in rat at 2.5 mg/kg measured upto 96 hrs by LC-MS/MS analysis; format: ADME, organism-based; settings: in vivo
# MDA-MB-436 [20] = experiment: Induction of apoptosis in human MDA-MB-436 cells assessed as late apoptotic cells at 1 nM incubated for 3 days by Annexin V/ PI staining based flow cytometry (reference value: 6.57%); format: functional; settings: time 3 day
# [21] = Acute toxicity in Kunming mouse assessed as change in cellular morphology of lung at 100 mg/kg administered once every other day via gavage for 14 days by H and E staining based analysis; format: organism-based; settings: in vivo, po, 336 h, time 14 day
# MDA-MB-436 [22] = experiment: Antitumor activity against human MDA-MB-436 cells xenografted in female NOD/SCID mouse assessed as tumor growth inhibition at 0.3 mg/kg, po administered once every other day for 28 days relative to control; format: functional; set-up: scale not given: the % may be the effect or the level left; settings: time 28 day
# MDA-MB-436 [23] = experiment: Induction of apoptosis in human MDA-MB-436 cells assessed as early apoptotic cells at 10 nM incubated for 3 days by Annexin V/ PI staining based flow cytometry (reference value: 12.8%); format: functional; settings: time 3 day
# [24] = AUC(0 to t) in male Balb/c mouse at 1 mg/kg, iv measured upto 96 hrs by LC-MS/MS analysis; format: ADME, organism-based; settings: in vivo, iv, 1 mg/kg, 96 h
# MDA-MB-436 [25] = experiment: Induction of cell cycle arrest in human MDA-MB-436 cells assessed as accumulation of cells at S phase at 100 nM incubated for 3 days by PI staining based flow cytometric analysis (Rvb =18.94%); format: functional; settings: time 3 day
smiles,measurement,setting,value
CCc1cc2ncc(CN3CC=C(c4ccc(C#N)cn4)CC3)cc2[nH]c1=O,Activity,[1],Non-toxic
same,Cmax,[2],7540 ng/mL
same,Activity,[3],Non-toxic
same,Activity,MDA-MB-436 [4],9.94%
same,inhibition,[5],93.6%
same,Activity,MDA-MB-436 [6],56.97%
same,Survival,MDA-MB-436 [7],>60 days
same,half-life,[8],2840 min
same,inhibition,[9],72.9%
same,Tmax,[10],4.8 min
same,Activity,MDA-MB-436 [11],Dose-dependent-effect
same,inhibition,DLD-1,inactive
same,bioavailability,[12],87.7%
same,Activity,[13],Non-toxic
same,EC50,[14],4.33 µM
same,Survival,MDA-MB-436 [15],70 days
same,CL,[16],0.01 L/h/kg
same,Activity,MDA-MB-436 [17],37.31%
same,inhibition at 0.1 µM,MDA-MB-436 [18],82.2%
same,bioavailability,[19],85.5%
same,Activity,MDA-MB-436 [20],8.18%
same,Activity,[21],Non-toxic
same,Activity,MDA-MB-436 [22],89.9%
same,Activity,MDA-MB-436 [23],20.3%
same,AUCt,[24],897.43221 µg·h/mL
same,Activity,MDA-MB-436 [25],9.37%
